# Data taken from patent US8940798B2, “Compounds useful for treating and/or preventing disease-associated bone loss” (Centre National de al Recherche Scientifique (CNRS), priority 2011, dated 2015).
# How the values were obtained:
# osteoclasts (OCs) = assay: Resorption of calcium-phosphate matrices by OCs; assay type: cell-based, mouse; details: 25 μM C21 (not shown)
# Procedure: BMMs were isolated from long bones of 4- to 8-week-old animals as described (16) and OCs obtained by culturing BMMs with RANKL (100 ng/ml) and M-CSF (10 ng/ml) (Peprotech) for 5 days. RAW264.7 cells were grown for 5 days with RANKL (50 ng/ml) to obtain OCs. For resorption, OCs were differentiated in multiwell chambers or on coverslips coated with calcium phosphate (Osteologic Biocoat, BD Bioscience) or in 96-well plates containing a bovine bone slice (IDS Nordic Bioscience). Mesenchymal stem cells (MSCs) were isolated from mouse bone marrow and grown as described (18).
# OCs in multiwell Osteologic Biocoat were fixed at day 7 of differentiation and calciumphosphate was stained with von Kossa as described (BRAZIER et al, 2009, see above). The entire well surface was imaged using a Zeiss AxioimagerZ1 microscope. Well image was reconstituted and resorbed areas were measured using MetaMorph 7.0 software (Molecular Devices). For bone resorption assays, OCs were derived from BMMs in 96-well plates containing bovine bone slices. At day 5 of differentiation, medium was changed with fresh medium. After 2 days, CTx concentrations were measured using Crosslap (IDS Nordic Bioscience). […]
# DBA1 mice = assay: Arthritis model induced by injecting bovine collagen into DBA1 mice; assay type: in vivo, mouse
# Procedure: In inflammatory arthritis pathologies such as rheumatoid polyarthritis, the inflammatory reaction in the synovial tissue causes differentiation of osteoclasts that destroy the bone in the area of the joints (see FIG. 8). The arthritis model induced by injecting bovine collagen into DBA1 mice is classically used as a model for this pathology.
# Protocol experiment 1: 2 naive DBA1 mice, 6 control mice injected with PBS and 8 test mice receiving the compound C21, 5 mg/d/kg, 5 days per week, as a retro-orbital sinus injection. The mice are distributed in 2 cages, with 1 naive mouse, 3 control mice and 4 test mice per cage. The animals, with the exception of the naive mice, receive an injection of […] of bovine collagen at day 0 and at day 20.
# Protocol experiment 2: 4 naive DBA1 mice, 12 control mice injected with PBS and 12 test mice receiving the compound C21, 15 mg/d/kg, 5 days per week, as an intraperitoneal injection. The mice are distributed in 2 cages, with 2 naive mice, 6 control mice and 6 test mice per cage. The animals, with the exception of the naive mice, receive an injection of 100 μg of bovine collagen at day 0 and at day 20.
# The arthritic score of each mouse is established twice per week between days 20 and D52, in order to measure swelling and deformation of the joints of the four limbs, an indication of the inflammatory response. The mice are sacrificed at D53, the legs are dissected and the structure of the bone surface of the metatarsi is imaged by micro-tomography in order to show the bone degradation at the area of the joints. The bone volume with respect to the total volume of the joint (BV/TV) decreases with the formation of resorption cavities. The measurements were performed on the joint of the central finger of the right metatarsus in experiment 1 and from the left and the right metatarsus in experiment 2. Anti-collagen IgG levels were measured in the serum of the mice in experiment 2 at day 52.
smiles,measurement,setting,value
"O=S(=O)(Nc1cc(Cl)cc(Cl)c1)c1ccccc1 [C21, N-(3,5-dichlorophenyl)benzenesulfonamide]",Resorption of calcium-phosphate matrices,osteoclasts (OCs),efficiently inhibits
same,Correlation between the arthritic score and BV/TV,"DBA1 mice; experiment 1, 5 mg/d/kg",no correlation
same,Mean arthritic score on D52,"DBA1 mice; experiment 1, 5 mg/d/kg, 5 days per week, retro-orbital sinus injection",3.78±1.23
same,Bone mass regardless of arthritic score,"DBA1 mice; experiment 1, 5 mg/d/kg, BV/TV relative to arthritic score",maintenance of their bone mass
same,Bone mass (BV/TV) by micro-tomography by comparison with the naive mice,"DBA1 mice; experiment 1, 5 mg/d/kg, metatarsus joint, D53",did not have any BV/TV modification
same,Number of mice of the 8 showing moderate bone degradation,"DBA1 mice; experiment 1, 5 mg/d/kg, three-dimensional reconstruction of first joint of metatarsus",1
same,Correlation between the BV/TV and the arthritic score,"DBA1 mice; experiment 2, 15 mg/d/kg intraperitoneal",no correlation
same,Levels of anti-collagen IgGs compared with PBS mice,"DBA1 mice; experiment 2, 15 mg/d/kg intraperitoneal, serum at day 52",non-significantly different
